Experimental data from PMC7718255, “Structural characterization and in vitro lipid binding studies of non-specific lipid transfer protein 1 (nsLTP1) from fennel (Foeniculum vulgare) seeds” (Scientific Reports, 2020).

target: T1, fennel nsLTP1 (Anethum foeniculum, UniProt C0HLP9); assay: TNS fluorescence displacement; assay type: binding; details: 3.5 µM TNS, 4 µM nsLTP1, fatty acid 5-20 µM; 175 mM mannitol, 0.5 mM K2SO4, 0.5 mM CaCl2, 5 mM MES pH 7.0, 25 °C; competitive with TNS
T1 construct: native mature protein purified from seeds (gel filtration, RP-HPLC); 91 residues, 9433 Da, monomer
T1 sequence (C0HLP9 1-91): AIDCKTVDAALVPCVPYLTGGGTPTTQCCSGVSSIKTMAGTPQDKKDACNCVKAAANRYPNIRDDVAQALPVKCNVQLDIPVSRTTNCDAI

Compound	% of the control fluorescence (nsLTP1-TNS complex)
CCCCC/C=C\C/C=C\CCCCCCCC(=O)O [linoleic acid, cis, cis-9,12-Octadecadienoic acid]	4–40%
CC/C=C\C/C=C\C/C=C\CCCCCCCC(=O)O [linolenic acid, all-cis-9,12,15-octadecatrienoic acid]	7–59%
CCCCCCCCCCCCCCCC(=O)O [palmitic acid]	40–69%
CCCCCCCCCCCCCCCCCC(=O)O [stearic acid]	21–59%
